Among the data in PubChem BioAssay AID1275 (Emory University Molecular Libraries Screening Center, 2008) are IC50 values, retold here.

Several values for one entry are separate records, joined by “and”; a condition that tells them apart may be missing. Identical values can stand only once. Activity calls are given as the source filed them. The rule behind the calls is not given here.

In this assay the target is Neutrophil cytosol factor 1 (Homo sapiens) (UniProt P14598). As to the kind of experiment: p47phox binding inhibitors, dose response, biochemical, NADPH oxidase regulatory subunit, fluorescence polarization (AID 1275). The conditions noted are these: p47phox binding inhibition. Background: Polarisation of emitted light reports the rotation of a fluorescent probe.
Chain of Neutrophil cytosol factor 1 (Homo sapiens) (P14598 whole entry, looked up): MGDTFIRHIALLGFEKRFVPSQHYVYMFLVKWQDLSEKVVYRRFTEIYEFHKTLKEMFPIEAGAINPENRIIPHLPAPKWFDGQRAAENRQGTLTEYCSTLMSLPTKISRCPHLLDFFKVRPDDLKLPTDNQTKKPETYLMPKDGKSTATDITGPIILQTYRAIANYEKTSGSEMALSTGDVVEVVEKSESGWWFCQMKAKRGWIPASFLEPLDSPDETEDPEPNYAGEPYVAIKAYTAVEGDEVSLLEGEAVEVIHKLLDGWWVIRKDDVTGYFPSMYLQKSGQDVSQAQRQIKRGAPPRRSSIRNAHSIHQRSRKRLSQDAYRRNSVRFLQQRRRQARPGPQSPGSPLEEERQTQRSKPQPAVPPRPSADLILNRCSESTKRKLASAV

Take `CCOc1ccc2c(c1)C(c1cccs1)=NNC(c1cccnc1)=N2`: the IC50 (commonly the concentration needed to halve the response being measured) was > 50 µM (inactive).

Take `Cc1ccc(-n2c(O)c(/C=N/Nc3ccccc3)c(=O)[nH]c2=O)cc1C`: the IC50 was > 50 µM (inactive).

As to `Cc1ccc(/C(CSc2nccn2-c2ncc(C(F)(F)F)cc2Cl)=N\O)cc1`, the IC50 was > 50 µM (inactive).

In the case of `CC(=O)N1C(=O)C2(C(C#N)=C(N)Oc3n[nH]c(-c4ccccn4)c32)c2ccccc21` (stereo not given), the IC50 was > 50 µM (inactive).

As to `CC1=C(C#N)c2nc(N)c(C#N)c(C)c2/C1=C\c1ccc(-c2ccccc2C(=O)O)o1`, the IC50 was 26.9 µM.

As to `CCOC(=O)c1ccc(N2C(=O)CC(Nc3ccc(O)cc3)C2=O)cc1` (stereo not given), the IC50 is 23.7 µM.

`CCOC(=O)C(=CNc1ccc(Oc2cccnc2)nc1)C(=O)OCC`: the IC50 was > 50 µM (inactive).

As for `CCOc1ccc(N/C=C/C(=O)c2ccc(C)cc2)c([N+](=O)[O-])c1`, the IC50 is > 50 µM (inactive).

Regarding `COc1ccc(C2C(C#N)=C(N)Oc3cc4c(cc32)OCO4)cc1` (stereo not given), the IC50 is > 50 µM (inactive).

Regarding `Cc1cc2c(C)nc(N/N=C/c3ccc([N+](=O)[O-])cc3)nc2o1`, the IC50 was > 50 µM (inactive).

As for `COc1ccc(N=C2O/C(=C/c3sc(=S)n(CC4CCCO4)c3O)N=C2C#N)cc1` (stereo not given), the IC50 was 16 µM.

`COCc1cc(C)nc(N/N=C/c2ccc(-c3ccc(Cl)cc3[N+](=O)[O-])o2)c1C#N`: the IC50 was > 50 µM (inactive).

`O=[N+]([O-])c1ccc(N=Cc2c(O)ccc3ccccc23)cc1`: the IC50 is 4.58 µM.

As to `COc1ccc(C2C(C(=O)c3ccccc3)=C(C)Nc3nc4ccccc4n32)cc1OC` (stereo not given), the IC50 was > 50 µM (inactive).

`Nc1cc(Cl)ccc1N1C(=O)CCC1=O`: the IC50 was > 50 µM (inactive).

On to `CC1(C)CC(=O)C2=C(C1)Nc1cc3c(cc1C2c1ccc2c(c1)OCO2)OCO3` (stereo not given), for which the IC50 is > 50 µM (inactive).

With `CCOC(=O)C1=C(c2ccccc2)NC(N)=NC1c1ccc(OCc2ccc(C(=O)OC)cc2)cc1` (stereo not given), the IC50 is 6.96 µM.

For the compound `COc1nc(N/N=C/c2ccc(-c3cccc([N+](=O)[O-])c3)o2)nc(N2CCOCC2)n1`, the IC50 is > 50 µM (inactive).

Turning to `Cc1cccc(NC(=O)Cn2c(O)c(N=NC(=O)c3ccccc3O)c3ccccc32)c1`, the IC50 is > 50 µM (inactive).

`CCOC(=O)C1=C(c2ccccc2)NC(N)=NC1c1ccc(OCc2ccc(Cl)cc2)c(OC)c1` (stereo not given): the IC50 is 4.14 µM.

For the compound `C/C(=N\Nc1ccc(S(N)(=O)=O)cc1[N+](=O)[O-])c1ccc2c(c1)OCO2`, the IC50 is > 50 µM (inactive).

In the case of `N#CC(=C=[N-])c1nc2ccccc2nc1-[n+]1cccc(NC(=O)c2ccccc2)c1`, the IC50 is > 50 µM (inactive) and 24.2 µM.

As for `C=CCNC(=S)N1CCN(CCN=CC2=C(O)CC(c3ccco3)CC2=O)CC1` (stereo not given), the IC50 is > 50 µM (inactive).

Take `Cc1ccccc1NC(=O)Cn1c(O)c(N=NC(=O)c2ccccc2O)c2ccccc21`: the IC50 is > 50 µM (inactive).

On to `CN(C)c1ccnc2c[cH-]cc12.[Fe].c1ccc(-[c-]2[c-](-c3ccccc3)[c-](-c3ccccc3)[c-](-c3ccccc3)[c-]2-c2ccccc2)cc1` (stereo not given), for which the IC50 was 13.9 µM and 2.73 µM.

As to `COc1ccc(-c2cn[nH]c2-c2ccc(OCc3ccc([N+](=O)[O-])cc3)cc2O)cc1`, the IC50 was > 50 µM (inactive).

Consider `N#Cc1ccc(N/N=C/c2cn(-c3ccccc3)nc2-c2ccccc2)c([N+](=O)[O-])c1`, for which the IC50 is > 50 µM (inactive).

As for `Cc1nc2ccccc2n2c(O)c(CC(=O)O)cc12`, the IC50 entry is “inactive”.

Turning to `Cc1ccc(/C=N/Nc2ccnc3cc(Cl)ccc23)c(C)c1`, the IC50 was > 50 µM (inactive).

As for `O=C(N=Nc1c(O)[nH]c2ccc(Br)cc12)c1cc(-c2cccs2)nc2ccccc12`, the IC50 was > 50 µM (inactive).

For `O=C1Nc2ccccc2/C1=N/N=C/c1ccc(-c2ccc([N+](=O)[O-])cc2)o1`, the IC50 was > 50 µM (inactive).

In the case of `Cc1ccc(C(=O)C2=C(O)C(=O)N(Cc3ccccc3)C2c2cccnc2)o1` (stereo not given), the IC50 was > 50 µM (inactive).

`O=c1[nH]c(=S)[nH]c(O)c1N=Nc1ccc(-c2ccccc2)cc1[N+](=O)[O-]`: the IC50 is 8.05 µM.

Consider `Cc1ccc(NC(=O)Cn2c(O)c(N=NC(=O)c3cc4ccccc4cc3O)c3ccccc32)cc1`, for which the IC50 is > 50 µM (inactive).

As for `O=c1[nH]c(O)c(/C=C2/C=CC(c3cc(Cl)ccc3Cl)=N2)c(=O)[nH]1`, the IC50 was > 50 µM (inactive).

With `O=C1OCC=C1NNC(=O)c1cccnc1`, the IC50 is > 50 µM (inactive).

With `O=C(Cn1c(O)c(/C=C2\C=Nc3ccc(Br)cc32)sc1=O)N1CCCC1`, the IC50 was > 50 µM (inactive).

`CCOc1ccc(-n2c(SCC(=O)Nc3ccc(Br)cc3)nc3n[nH]c(C)c3c2=N)cc1`: the IC50 was > 50 µM (inactive).

Consider `O=c1oc2ccccc2c(O)c1/C=C1\C=Nc2ccccc21`, for which the IC50 was > 50 µM (inactive).

For the compound `CSc1sc(C)cc1C1C(C#N)=C(N)N(c2cccnc2)C2=C1C(=O)CCC2` (stereo not given), the IC50 was > 50 µM (inactive).

Regarding `CC1CCCCN1C(=O)C12CCC(C)(/C(=N/O)C1)C2(C)C` (stereo not given), the IC50 is > 50 µM (inactive).

For `COC(=O)c1cc(C(=O)OC)cc(N2C(=O)CC(NNC(=O)c3ccc(C)cc3)C2=O)c1` (stereo not given), the IC50 is > 50 µM (inactive).

As for `CCOc1ccc(C2CC(c3c(O)n(C)c(=O)n(C)c3=O)=NN2)cc1` (stereo not given), the IC50 is > 50 µM (inactive).

For the compound `CCN=C(Nc1ccc2c(c1)OCO2)SC1CC(=O)N(c2ccccc2F)C1=O` (stereo not given), the IC50 is > 50 µM (inactive).

For the compound `CN(C)CC(C)(C)CN=Cc1c(O)[nH]c2ccccc12`, the IC50 is > 50 µM (inactive).

With `N#CC1=C(N)OC2=C(CN(Cc3ccccc3)C/C2=C\c2cccnc2)C1c1cccnc1` (stereo not given), the IC50 is 3.5 µM.

Take `CCOC(=O)C1=C(COc2ccc(C)cc2)NC(=O)NC1c1cc(C)ccc1C` (stereo not given): the IC50 is > 50 µM (inactive).

As to `COc1ccc(N2C(=O)CNC2=S)cc1`, the IC50 is > 50 µM (inactive).

For the compound `CCOC(=O)C1=C(O)c2ccccc2C(=O)/C1=C\c1ccc(CC)cc1`, the IC50 is > 50 µM (inactive).

`C/C(N)=C(/C#N)C(=O)CSc1nnc(-c2ccc3c(c2)OCO3)o1`: the IC50 was > 50 µM (inactive).

Turning to `O=C1CCCC(O)=C1N=Nc1ccc(C(=O)O)cc1`, the IC50 was > 50 µM (inactive).

Consider `C(=N\Nc1nc(Nc2ccccc2)nc(N2CCCCC2)n1)/c1ccco1`, for which the IC50 was > 50 µM (inactive).

In the case of `Oc1[nH]c(=S)sc1/C=C1\C(c2ccccc2)=Nc2ccccc21`, the IC50 result is “inactive”.

Consider `C[c-]1[c-](C)[c-](C)[c-](C)[c-]1C.[Fe].c1cc2nccc(N3CCCC3)[c-]2c1` (stereo not given), for which the IC50 is > 50 µM (inactive).

`O=C(N=Nc1c(O)n(Cc2ccccc2)c2ccccc12)c1cc2ccccc2cc1O`: the IC50 is > 50 µM (inactive).

Turning to `O=C(N=Nc1c(O)n(C2OC(=O)c3ccccc32)c2ccccc12)c1ccco1` (stereo not given), the IC50 was > 50 µM (inactive).

In the case of `N=C1CCC(=N)c2c1c(O)c1ccccc1c2O`, the concentration for half-maximal inhibition (IC50) was 0.68 µM.

On to `Clc1ccc(/C=N/Nc2nc(Cl)nc3ccccc23)cc1`, for which the IC50 is > 50 µM (inactive).

On to `O=c1cnnc(N/N=C/c2c[nH]c3ccccc23)[nH]1`, for which the IC50 is > 50 µM (inactive).

Consider `COc1ccc(-c2cnnc(N/N=C/c3ccc(-c4ccc([N+](=O)[O-])cc4)o3)n2)cc1`, for which the IC50 was > 50 µM (inactive).

For the compound `CCc1cc2c(=O)nc3n(c2s1)Cc1ccccc1/C3=C(/O)c1ccccc1Cl`, the IC50 is > 50 µM (inactive).

On to `Cc1cccc(N=Nc2c(C)c(C#N)c(O)[nH]c2=O)c1`, for which the IC50 is > 50 µM (inactive).

Turning to `CCOC(=O)/C(C)=C1\NC(C)(C)Cc2ccccc21`, the IC50 was > 50 µM (inactive).

Take `CC1=NN(c2ccccc2)C(=O)/C1=C/C=C/c1ccc(N(C)C)cc1`: the IC50 is > 50 µM (inactive).

Turning to `CCOC(=O)C1=C(O)CSC1=Nc1ccc(Cl)cc1`, the IC50 was > 50 µM (inactive).

Take `N#CC(=C=[N-])c1nc2ccccc2nc1-[n+]1cccc(NC(=O)c2cccs2)c1`: the IC50 was 14.8 µM.

For the compound `O=[N+]([O-])c1ccc(N/N=C\c2cccn2-c2ccccc2)nc1`, the IC50 is > 50 µM (inactive).

As for `CC(C)Cc1ccc(/C(=N/O)C(=O)O)s1`, the IC50 is > 50 µM (inactive).

In the case of `CC(C)N1CC2=C(OC(N)=C(C#N)C2c2cccnc2)/C(=C/c2cccnc2)C1` (stereo not given), the IC50 entry is “inactive”.

Consider `Cc1ccc(C(NC(=O)N2CCOCC2)=C(Cl)Cl)cc1F`, for which the IC50 was > 50 µM (inactive).

On to `O=C(N=Nc1c(O)[nH]c2ccc(Cl)cc12)c1cc(-c2cccs2)nc2ccccc12`, for which the IC50 was > 50 µM (inactive).

With `CCN(CC)c1ccc(/C=N/c2sc3c(c2C#N)C2CCN3CC2)c(O)c1`, the IC50 was 6.96 µM.

In the case of `COc1cc(/C=N/NC(=O)c2ccc(CN3c4cccc5cccc(c45)S3(=O)=O)cc2)cc(OC)c1O`, the IC50 was > 50 µM (inactive).

Regarding `CCOc1ccc(N/C=C/C(=O)c2ccccc2)c([N+](=O)[O-])c1`, the IC50 was > 50 µM (inactive).

For `Cn1c(O)c(/C=C2\N=c3ccccc3=C2CCNC(=S)NC2CC2)c(=O)n(C)c1=O`, the IC50 is 14.1 µM.
